Patent US20040009904A1, “APL immunoreactive peptides, conjugates thereof and methods of treatment for aPL antibody-mediated pathologies” (priority 1995, published 2004)
Bridge positions count the residues as written; N and C are the ends. Peptide text beside a SMILES is read from it.

Columns and labels:
ACA-6501 [1] = experiment: Competitive binding peptide ACA ELISA, cardiolipin/β2-GPI-coated plates; design: species or system human; settings: peptide 1 mg/mL, affinity purified antibody
Method in brief: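 Monomeric peptides at several amounts were preincubated ~1 h at RT with ACA-6501 serum (final 1:400), then added to cardiolipin-coated, fish-gelatin-blocked plates with β2-GPI for 1 h at RT. Bound IgG was detected with alkaline phosphatase anti-human IgG and phenolphthalein monophosphate, read at 550 nm. IC50 was the peptide amount at half-maximal absorbance.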

ACA-6501 [2] = experiment: Phage-ELISA; format: binding, human; settings: phage clones coated on wells, affACA-6501 2.5 μg/mL
Experimental: This method of selecting phage requires very tight binding of the insert to the screening antibody. Phage are directly coated onto wells of a microtitration plate and incubated with the screening antibody. Following washes to remove unbound antibody, an anti-human IgG alkaline phosphatase conjugate is added to bind any aPL antibodies bound to the phage. APL antibodies are then detected by adding a calorimetric substrate to the well which will react with alkaline phosphatase according to methods well known in the art.
Three mL cultures were prepared from 35 clones previously isolated with affinity purified ACA-6501 in several phage library screens as well as one fUSE 2 phage clone lacking a peptide insert which was used as a control. After centrifugation for 3 minutes at 17,000×g, 100 μL from each phage supernatant (adjusted to −2×10^11 particles/mL, based on absorbance) was added to microtitration plate wells (Falcon, Becton-Dickinson Labware, Lincoln Park, N.Y.) and allowed to incubate overnight at 4° C. Following four washes with TBS 7.4, the plate was blocked with 125 μL of 0.5% BSA/TBS for 1 hour at RT. After another four TBS washes, 100 μL of affACA-6501 previously diluted to 2.5 μg/mL in TBS/BSA was added to each well and allowed to incubate 1 hour at 37° C. Following an additional four washes, 100 μL anti-human IgG diluted 1:1000 in TBS/0.5% Tween was added to each well. After 1 hour at RT, enzyme substrate was added and the incubation allowed to proceed for 2 hours. Following the addition of 50 μL 0.2 M Na2HPO4 to stop the reaction, absorbance was measured at 550 nm in the automated plate absorbance reader. […] The sequences for these clones are showvn in Table 2.

## CC(C)C[C@@H]1NC(=O)[C@H](CC(C)C)NC(=O)[C@H](CC(C)C)NC(=O)[C@@H](NC(=O)[C@@H]2CCCN2C(=O)CNC(=O)[C@H](C)N)CSSC[C@@H](C(=O)N2CCC[C@H]2C(=O)NCC(=O)O)NC(=O)[C@H](CCCNC(=N)N)NC(=O)[C@H](CC(=O)O)NC(=O)[C@@H]2CCCN2C(=O)[C@H](C)NC1=O [3B10, AGPCLLLAPDRCPG] (H-AGPCLLLAPDRCPG-OH; disulfide 4-12)
ACA-6501 [1]
  Percent Inhibition of AffACA by Peptide Monomers, 6501: 60%
ACA-6501 [2]
  signal in the phage-ELISA: significant signals
